This note sets out measurements from PMC6433934, “Preclinical Evaluation of Bispecific Adaptor Molecule Controlled Folate Receptor CAR-T Cell Therapy With Special Focus on Pediatric Malignancies” (Frontiers in Oncology, 2019).

pKd: −log10 of the molar value.

One series relates to MDA-MB-231 tumors. Description: Effect of dietary folate on CRS and antitumor activity. The series is classed as in vivo, NSG mice. The protocol:
All animal care and use were performed according to NIH guidelines and in compliance with protocols approved by the Purdue University Animal Use and Care Committee. Female 4 to 5-weeks-old NOD/SCID gamma (NSG™) mice (stock number: 005557) were purchased from The Jackson Laboratory (Bar Harbor, ME). Unless specifically indicated, all animals were maintained on a FA-deficient diet (TestDiet, St. Louis, MO) upon arrival and throughout the study. To establish subcutaneous xenografts, MDA-MB-231 and HOS-FRα were implanted in the right flank region at 2.5 × 10^6 and 1 × 10^6 cells per animal, respectively. For intravenous xenografts, THP1-FRβ cells were inoculated at 5 × 10^6 cells per animal. Subcutaneous tumors were measured 2–3 times per week with a caliper and calculated using the ellipsoidal formula (length x width^2)/2. […] All animal doses (CAR-T cells, EC17, sodium fluorescein) were given intravenously.
For MDA-MB-231 studies, mice received a high dose (~10 million) of a “clinical facsimile” of E2-CAR-T cells (~39% EGFRt+) with a low differentiation profile. Two days later, we started them with 3 different treatment regimens of EC17 at an average tumor size of ~293 ± 39 mm^3. The EC17 dosing was given once-a-week (SIW) at 500 nmol/kg on Mondays, or as escalating doses of 5, 50, or 100, and 500 or 1,000 nmol/kg on Monday, Thursday, and Monday with a 6 day break in-between cycles. Control mice were left untreated (received CAR-T cells but no EC17). For comparison, a cohort of tumor-free littermates also received the same number of CAR-T cells without or with EC17 SIW at 500 nmol/kg. To study the effect of high dietary folate, two sets of NSG mice were placed on either a FA-replete diet (4 mg/kg, Envigo, Indianapolis, IN) or a FA-deficient diet (TestDiet, St. Louis, MO) upon arrival. On day 0, both sets of the mice received ~10 million of the same “clinical facsimile” CAR-T cells followed by no EC17 or EC17 SIW at 500 nmol/kg starting on day 3. On the first day of EC17 administration, MDA-MB-231 tumors size averaged around ~549 ± 184 mm^3 (280–918 mm^3) in FA-replete mice, and ~559 ± 165 mm^3 (356–961 mm^3) in FA-deficient mice.
Depending on the CAR-T cell dose and how EC17 is administered, tumor-bearing mice receiving FITC-specific CAR-T cells can experience severe CRS and varying degrees of body weight loss ([27], [33], [34]). Therefore, we developed a CRS grading system (0–5 scale) to empirically assess CRS toxicity from animals' gross morphology and social behavior to allow for better timing of CRS rescue. While grades 0 and 5 indicated normal (no CRS) or death (due to severe CRS), respectively, grades 1, 2, and 3–4 were considered mild, light-to-moderate, and severe CRS. In addition, all EC17 doses were intentionally given toward the end of any given day to allow potential CRS symptoms to develop overnight. On the days immediately following each EC17 dose, animals were scored and rescue agents such as sodium fluorescein, folic acid and leucovorin were used to mitigate CRS toxicity ([33]). In this particular instance, a batch of E2-CAR-T cells with a high EGFRt+ CD4/CD8 ratio (~93:7) was given to HOS-FRα tumor-bearing mice at a mixture of ~2.5 million CD8 and ~33 million CD4 on day 0. When EC17 was dosed, respectively, at 500, 100, and 500 nmol/kg on days 3, 10, and 12, low CRS (grades 1–2) was noted on days 4 and 11 but high CRS (grade 3) was noted on day 13. To mitigate the severe CRS toxicity, sodium fluorescein was intravenously administrated at ~96 mg/kg in the morning of day 13 and mouse plasma samples were collected 6 h later for analysis of CRS-associated cytokines.

The target of another series is T1, FRβ (Homo sapiens, UniProt P14207).
T1 construct: expressed in transfected cells; host or cells: Chinese hamster ovary cells (CHO-β)
T1 sequence (P14207 17-255): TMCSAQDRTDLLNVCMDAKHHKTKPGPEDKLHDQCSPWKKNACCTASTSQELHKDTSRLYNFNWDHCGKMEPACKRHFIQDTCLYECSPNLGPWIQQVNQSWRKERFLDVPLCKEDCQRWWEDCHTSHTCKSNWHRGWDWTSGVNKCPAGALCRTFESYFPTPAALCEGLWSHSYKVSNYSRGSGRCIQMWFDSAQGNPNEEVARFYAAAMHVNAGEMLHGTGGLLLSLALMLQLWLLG
Kind of series: 3H-EC17 cell-based radioligand binding, CHO-β cells. As to conditions: ^3H-EC17, CHO-β cells, 2 h at 37°C, from molecules bound per cell. The protocol:
Unless otherwise noted, all FR+ and FR-negative cancer cell lines were, respectively, maintained in RPMI-1640 medium (Gibco BRL) supplemented with 10% heat-inactivated fetal calf serum without (FFRPMI) or with (RPMI) 2.4 μM folic acid (FA). KB (FRα-expressing human cervical carcinoma with HeLa markers) and CHO-β (Chinese hamster ovary cells transfected with human FRβ) were used as the sources of FRα and FRβ for radioligand binding assays, respectively ([18]). MDA-MB-231 represents a FRα+ subclone of human TNBC cell line. For AML studies, the green fluorescent protein (GFP)-expressing isogenic pairs of FRβ-positive (THP1-FRβ) and FR-negative (THP1-FG12) cell lines were kindly provided by Dr. Manohar Ratnam (The University of Toledo, Toledo, OH). […]
The bispecific affinities of EC17 CAM were assessed using ^3H-EC17 in cell-based radioligand binding assays. […] The whole cell lysates were quantitated for the level of radioactivity and cellular protein content by standard Pierce BCA protein assay. The number of ^3H-EC17 molecules bound per cell was calculated to determine the dissociation constants (Kd) for FRα (KB) and FRβ (CHO-β), respectively. […] Afterwards, the cells were washed 4x with PBS, lysed with 0.1% Triton X-100 plus 0.1 N NaOH and counted in a scintillation counter. […]

Setting [1] is: FA-deficient diet, ~10 million E2-CAR-T cells, subsequent EC17 doses SIW 500 nmol/kg.
Setting [2] is: FA-replete diet, EC17 SIW 500 nmol/kg, ~10 million E2-CAR-T cells, n = 5.

The term pKd denotes the negative decadic logarithm of the Kd, by convention in mol/L. `Nc1nc2ncc(CNc3ccc(C(=O)NC(CCC(=O)NCCNC(=S)Nc4ccc(-c5c6ccc(=O)cc-6oc6cc(O)ccc56)c(C(=O)O)c4)C(=O)O)cc3)nc2c(=O)[nH]1` (stereo not shown) [EC17, FA-(γ)-ethylenediamine-FITC]: the cures in the series on MDA-MB-231 tumors (FA-deficient diet, EC17 SIW 500 nmol/kg, ~10 million E2-CAR-T cells, n = 5) was 5/5. Also, the “CD3ε+ EGFRt+ CAR-T cells in blood” value with MDA-MB-231 tumors (FA-deficient diet, day 52, EC17 SIW 500 nmol/kg) is recorded as 1.6–20.4 × 10^4 per 100 μL blood. Further, in the series with MDA-MB-231 tumors (setting [1]), the CRS grade is 2–3 and the body weight loss is recorded as not above 11.4%. In the series on MDA-MB-231 tumors (setting [2]), the complete responses is reported as 2/5, the cures is recorded as 2/5 and the partial response was 1/5. In addition, the “CD3ε+ EGFRt+ CAR-T cells in blood” value in the series with MDA-MB-231 tumors (FA-replete diet, day 59, EC17 SIW 500 nmol/kg) is 0.027–4.3 × 10^3 per 100 μL blood. Moreover, in the series on MDA-MB-231 tumors (FA-replete diet, ~10 million E2-CAR-T cells, EC17 SIW 500 nmol/kg), the CRS symptoms result is listed as “did not show symptoms of CRS”. Besides, the pKd at FRβ was 9.10.
